For data set [1], the target named is T1, R557A RT RNase H (Human immunodeficiency virus type 1 group M subtype B, UniProt P04585, R1144A). Kind of data set: HIV-1 DNA polymerase-independent RNase H activity, R557A RT. To be noted: RNase H function; p-value 0.9682.
In a further data set the test system is MT4 cells. Particulars: read-out: MT4 CC50; non-infected MT4 cells, MTT.
Data set [2] deals with T2, R448A RT RNase H (Human immunodeficiency virus type 1 group M subtype B, UniProt P04585, R1035A). Kind of data set: HIV-1 DNA polymerase-independent RNase H activity, R448A RT. To be noted: RNase H function; p-value 0.5545.
Data set [3] has as its target T2, R448A RT RNase H. The arrangement: method as in ref 26,27 = [26]. To be noted: RNase H function; cited from earlier work.
Data set [4] deals with T1, R557A RT RNase H. The arrangement: method as in ref 26,27 = [26]. To be noted: RNase H function; cited from earlier work.
The test system of another data set is HIV-1 NL4.3 wt. To be noted: for SI (selectivity index): ratio between the CC50 and the EC50; for EC50: read-out: HIV-1 wt MT EC50, HIV-1 NL4.3 wt, MT4 cells, MTT, 5 days post infection, mean and SD of three experiments.
The target of the next data set is Q475A RT RNase H (Human immunodeficiency virus type 1 group M subtype B, UniProt P04585, Q1062A). Kind of data set: HIV-1 DNA polymerase-independent RNase H activity, Q475A RT. Particulars: RNase H function; p-value = 0.0008.
The subject of a further data set is VSV/HIV-1GFP. The data set is classed as cell-based.
A further data set can be described thus: in vitro. To be noted: human.
For the next data set, the target named is HIV-1 RT RNase H. Particulars: Table S2; biologic data previously reported; cited from earlier work.
The test system of another data set is HIV-1 IN. More on the design: method as in ref 30 = [30]. Particulars: enzymatic assay; cited from earlier work.
Data set [5] addresses HIV-1 RT-associated RDDP activity (wt RT) (Human immunodeficiency virus type 1 group M subtype B, UniProt P04585). Kind of data set: HIV-1 RNA-dependent DNA polymerase (RDDP) activity. It is filed as biochemical.
The target in data set [6] is HIV-1 RT-associated RNase H (wt RT) (Human immunodeficiency virus type 1 group M subtype B, UniProt P04585). Kind of data set: HIV-1 DNA polymerase-independent RNase H activity, wt RT.

As to `CCOC(=O)C(=O)CC(=O)/C=C/c1cccn1Cc1ccccc1Cl` [RDS1759], on R557A RT RNase H [1], the “potency of inhibition on R557A RT compared to wt RT” value was “not significantly affected”. Moreover, the CC50 in the data set on MT4 cells stood at 39 ± 4.4 µM. At R448A RT RNase H [2], the “potency of inhibition on R448A RT compared to wt RT” value is “not significantly affected”. Further, on R448A RT RNase H [3], the “activity against R448A HIV-1 RT” value is reported as “fully active”. For the same compound, the “activity against R557A HIV-1 RT” value on R557A RT RNase H [4] is given as “fully active”. Besides, in the data set on HIV-1 NL4.3 wt, the “SI (selectivity index)” value turned out to be 4.7 and the EC50 worked out at 8.2 ± 0.9 µM. Also, the “potency of inhibition on Q475A RT compared to wt RT” value on Q475A RT RNase H is on record as “significantly lost its potency”.
On to `Cc1nnc(C(=O)NC(C)(C)c2nc(C(=O)NCc3ccc(F)cc3)c(O)c(=O)n2C)o1` [RAL, raltegravir], for which the time-of-addition behaviour result with VSV/HIV-1GFP was “retained its potency over time”. For the same compound, the CC50 in “in vitro” was > 2.25 µM.
Regarding `O=C(N/N=C/c1cc(O)c(O)cc1O)c1cc(O)c(O)c(O)c1` [Compound 21], the IC50 at HIV-1 RT RNase H is 0.62 ± 0.1 µM. Further, the time-of-addition behaviour entry in the data set with VSV/HIV-1GFP is “retained its potency over time”. The “activity against HIV-1 IN” value in the data set with HIV-1 IN is on record as “inhibited”. The compound further showed a CC50 in “in vitro” of 31.8 ± 0.4 µM. Besides, in the data set with HIV-1 NL4.3 wt, the “SI (selectivity index)” value turned out to be 6.4.
Regarding `Cc1ccnc2c1NC(=O)c1cccnc1N2C1CC1` [NVP, nevirapine], the CC50 in “in vitro” is > 3.7 µM. For the same compound, the “SI (selectivity index)” value with HIV-1 NL4.3 wt is >5.5.
For the compound `CC(C)c1ccc(O)c(=O)c(O)c1` [beta-thujaplicinol], on R448A RT RNase H [3], the “activity against R448A HIV-1 RT” value is “fully active”. The “activity against R557A HIV-1 RT” value on R557A RT RNase H [4] is “fully active”.
Consider `O=C(N/N=C/c1ccccc1O)c1cc(O)c(O)c(O)c1` [Compound 13, N’-(2-hydroxy-benzylidene)-3,4,5-trihydroxybenzoylhydrazone], for which the “inhibitory effect on RDDP activity at 25 μM” value in [5] (25 μM) is recorded as “no inhibitory effect”. Further, the “fold less potent against RT polymerase activity than RNase H function” value in data set [5] (RDDP vs RNase H) is > 20 fold. Besides, the IC50 is 81 µM in data set [5] (wt RT, inhibitor and substrate added before the enzyme (competition)); 2.32 ± 0.75 µM at HIV-1 RT RNase H; 6.9 µM in [6] (RNase H IC50 against wt enzyme (site-directed mutagenesis study, Figure 4), determined in parallel with mutants); 3.6 µM in data set [6] (RT-associated RNase H activity IC50 (comparative inhibition, Figure 2B), inhibitor and substrate added before the enzyme (competition)). In the data set on VSV/HIV-1GFP, the “time after infection at which activity is lost (time-of-addition)” value stood at 6 h. Further, in the data set on HIV-1 IN, the “activity against HIV-1 IN” value was “inactivity”. Also, the CC50 in the data set “in vitro” amounted to 61.5 ± 2.2 µM. In the data set on HIV-1 NL4.3 wt, the “SI (selectivity index)” value was 6.1. Further, the EC50 with HIV-1 NL4.3 wt was 10.1 ± 4.7 µM.
As to `Cc1cn([C@H]2C[C@H](N=[N+]=[N-])[C@@H](CO)O2)c(=O)[nH]c1=O` [AZT, azidothymidine], the CC50 in “in vitro” was > 3.7 µM. Moreover, the “SI (selectivity index)” value with HIV-1 NL4.3 wt is >500.
The like results for `O=C1Nc2ccc(Cl)cc2[C@@](C#CC2CC2)(C(F)(F)F)O1` [EFV, efavirenz] were, in that order, > 0.31 µM and >6.25.

Source of the values: publication PMC7412550 (Viruses, 2020).
